The record followed here is article PMC4633953, “FR171456 is a specific inhibitor of mammalian NSDHL and yeast Erg26p” (Nature Communications, 2015).

Molecules are shown by their SMILES. pIC50: −log10 of the molar value. Where “and” joins values, the source holds several entries; their conditions need not be identical. Equal values may be shown once.

The subject of test [1] is sterol pathway intermediates in Huh-7 cells. Conditions: 80 nM vs 0 nM FR171456, 48 h. The method, then:
In an attempt to understand which sterol (and other) metabolites are altered by FR171456 a metabolite-profiling experiment was conducted using cells from the original replicon assay exposed to vehicle or four concentrations of FR171456 (Fig. 1c,f, Methods, supplementary Fig. 2). Peaks in the mass spectra with statistically significant differences in intensities between the high (80 nM) and low (0 nM) concentration samples were selected by P values <0.01 (Student's t-test, Bonferroni corrected) and ranked by fold changes. Metabolite identities were assigned to those peaks whose m/z ratio corresponds to the mass of known metabolites (Supplementary Table 1).
Samples of cell pellets containing 8 × 10^6 cells each were lysed and extracted with 300 μl cold methanol (−80 °C) in ultrasonic bath for 10 min and subsequently agitated for 5 min before centrifugation at 10,000 g for 5 min at 4 °C. The supernatants were removed and the remaining pellets were again extracted twice. The supernatants from three extractions were then combined and dried using a SpeedVac (Savant, Fisher Scientific Inc., USA) for 2 h without heating. The residues were resuspended in 200 μl of 80% MeOH and centrifuged to remove any non-dissolvable particles. Finally, 10 μl of the supernatant was then diluted by factor 100 in MeOH/H2O (1:1) for mass spectrometric analysis.
The diluted sample (100 μl) was infused directly into a LTQ-Orbitrap mass spectrometer (Thermo Fisher Scientific, USA) using a HTC PAL autosampler (CTC Analytics, Zwingen, Switzerland) at a flow rate of 18 μl min^–1. A make-up flow, consisting of 70% ethanol and 0.1% formic acid, was delivered through a T-piece at 15 μl min^–1. Electrospray ionization and selected monitoring scan were applied. The total mass range m/z 100–2,000 was segmented into […] scan events with a width of mass window m/z 50 each. Mass resolution at m/z 400 was 100,000.
Each sample was measured in triplicate in positive ionization mode in random order. For quality and instrument stability control, the samples were interspersed with test mix infusion and pooled samples. Blank spectra were also recorded and the observed mass peaks of solvent and impurities were then suppressed in subsequent analysis.
The measured raw spectra were imported with in-house software written in the Igor package (Wavemetrics Inc.) for alignment, peak detection, and integral normalization. The table of exact peak masses and intensities (Supplementary Data, file Supplementary Dataset 1) were exported into the statistical software R, version 2.15.1, for subsequent univariate statistics and pathway analysis. For peak identification, the KEGG database was searched for matches of the observed peaks with endogenous metabolite entries. Metabolite masses with adducts of H^+, Na^+, or K^+ were considered a hit and possible identity of a peak if the difference between its exact monoisotopic mass and the observed mass plus adducts was below 3 p.p.m.

The subject of the next test is Candida albicans NF2103. Nature of the test: Antifungal MIC. Type of test: cell-based.
Another test relates to Candida krusei NF2902. Nature of the test: Antifungal MIC. Type of test: cell-based. To be noted: Pichia kudriavzevii.
The test system of another test is Aspergillus favus NF4902. Nature of the test: Antifungal MIC. The format is cell-based.
The test system of test [2] is S. cerevisiae (BY4743 strain). Nature of the test: Yeast growth inhibition dose response (OD600). Type of test: cell-based. To be noted: BY4743, 14 h, 30 °C, YPD, 2% DMSO. Here is the method: Figure 2 FR171456 targets Erg26p in S. cerevisiae. (a) Structures of FR171456, and two related triterpenes (compound 1, compound 2). (b) Duplicate 12-point Dose response curves of wild-type diploid yeast with three compounds in a. Strain BY4743 was grown for 14 h at 30 °C in YPD media with 2% DMSO containing a dilution series of FR171456: black; Compound-1: light grey circles, and Compound-2: light grey squares. Y axis: OD600 absorbance indicating yeast growth, x axis: compound concentrations (log10 μM). (c) Haploinsufficiency and homozygous profiling (HIP resp. HOP) for FR171456 at 4 μM. Each mutant strain in the pool is represented by a circle (non-essential genes) or a square (essential genes). The, y axis represents strain sensitivity and x axis represents z-score (specificity). In (d), the z-scores of the HIP pool strains (y axis) plotted against increasing doses of FR171456 (x axis; μM). (e) Relative compound sensitivity profile of the erg26Δ/ERG26 strain across HIP experiments performed with 1,800 diverse small molecule yeast proliferation inhibitors. TEXT PRINTED IN THE PICTURE: (a) FR171456: MW 516.68; S.c. […] IC50 >200 μM | (a) Compound 2: MW 532.68; S.c. IC50 >200 μM

Another test addresses delta-opioid receptor (Homo sapiens, UniProt P41143). Nature of the test: Radioligand competition assay. The format is binding.

Chain of delta-opioid receptor (P41143 whole entry): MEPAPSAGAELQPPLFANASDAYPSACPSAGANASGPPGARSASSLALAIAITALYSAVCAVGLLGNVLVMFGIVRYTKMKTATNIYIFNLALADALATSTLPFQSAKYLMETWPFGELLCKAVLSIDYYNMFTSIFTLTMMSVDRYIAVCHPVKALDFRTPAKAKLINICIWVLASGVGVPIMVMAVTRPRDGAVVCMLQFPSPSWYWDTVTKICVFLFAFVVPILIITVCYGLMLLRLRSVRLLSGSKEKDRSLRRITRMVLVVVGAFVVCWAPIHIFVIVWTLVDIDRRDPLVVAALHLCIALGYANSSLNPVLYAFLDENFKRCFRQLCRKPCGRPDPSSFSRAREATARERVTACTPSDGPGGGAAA

As usually defined, the MIC is the lowest concentration found to suppress growth. The low end stands for inhibition by little substance, the high end for a need for much substance. The pIC50 is −log10 of the IC50, conventionally taken in molar units. Low values mean a high IC50, high ones a low IC50. Turning to `C=C(CCC(C)C1CCC2C1(C)CC(O)C13CC14C(=O)CC(O)C(C)(C(=O)O)C4C(=O)CC23O)C(C)C` [FR171456, (1R,2aR,3R,5aR,5bS,7aR,8S,9S,11aS,12aR)-1,5b,9-trihydroxy-2a,8-dimethyl-3-((R)-6-methyl-5-methyleneheptan-2-yl)-7,11-dioxohexadecahydrocyclopenta[a]cyclopropa[e]-phenanthrene-8-carboxylic acid], in test [1], the “Fold change, m/z 401.3418 (calcidiol, 7α-hydroxycholest-4-en-3-one)” value amounted to 0.680; the “Fold change, m/z 463.3183 (pfaffic acid)” value is “infinite”; the “Fold change, m/z 465.3339 (4α-methylzymosterol-4-carboxylate)” value is on record as 822.2; the “Fold change, m/z 467.3496 (3β-hydroxy-4β-methyl-5α-cholest-7-ene-4α-carboxylate)” value stood at 3675.4. Also, in test [1], the “Fold change, m/z 489.3314 (not identified)” value is on record as “infinite” and the “Fold change, m/z 1198.8982 (not identified)” value came to 9665.6. The MIC with Candida albicans NF2103 was 32 µg/mL and 72 µM. The MIC with Candida krusei NF2902 is 64 µg/mL and 144 µM. Besides, in the test with Aspergillus favus NF4902, the MIC is 64 µg/mL and 144 µM. This compound also had a pIC50 in test [2] of 4.87. The compound further showed a pIC50 in test [2] (Saccharomyces cerevisiae, 14 h) of 4.85. On delta-opioid receptor, this compound had a pIC50 of 7.00.
